ChEMBL document CHEMBL1158101, “Protein tyrosine phosphatase-1B inhibitory activity of isoprenylated flavonoids isolated from Erythrina mildbraedii” (J Nat Prod, 2006)

What follows are compounds tested against T1, Tyrosine-protein phosphatase non-receptor type 1 (Homo sapiens, UniProt P18031) (assay: Inhibition of human recombinant PTP1B).
T1 sequence (P18031 whole entry): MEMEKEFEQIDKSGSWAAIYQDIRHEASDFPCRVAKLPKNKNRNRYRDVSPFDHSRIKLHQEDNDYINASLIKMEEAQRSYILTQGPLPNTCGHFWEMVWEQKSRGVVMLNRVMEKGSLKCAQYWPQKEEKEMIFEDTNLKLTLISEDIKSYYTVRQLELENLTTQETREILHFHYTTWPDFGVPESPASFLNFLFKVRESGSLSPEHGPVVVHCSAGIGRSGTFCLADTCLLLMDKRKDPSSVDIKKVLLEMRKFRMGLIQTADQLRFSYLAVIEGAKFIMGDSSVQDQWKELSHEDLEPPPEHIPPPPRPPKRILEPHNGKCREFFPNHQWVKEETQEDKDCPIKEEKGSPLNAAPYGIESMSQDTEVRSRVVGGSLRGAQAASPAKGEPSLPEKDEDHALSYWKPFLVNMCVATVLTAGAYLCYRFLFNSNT

`COc1ccc(/C=C/C(=O)c2ccc(O)cc2O)cc1` and `O=C(/C=C/c1ccc(O)cc1)c1ccc(O)cc1O` [ISOLIQUIRITIGENIN] cannot be ordered by IC50: > 60 µM for the first, > 60 µM for the second.

Going from `COc1cc(OC)c2c(=O)c(-c3ccc(O)cc3)coc2c1` to `CC1(C)C=Cc2c(cc3occ(-c4ccc(O)cc4)c(=O)c3c2O)O1` [ALPINUMISOFLAVONE], the IC50 falls from > 60 µM to 41.5 µM.

First: COc1c(CC=C(C)C)cc([C@@H]2CC(=O)c3c(O)cc(O)cc3O2)cc1CC=C(C)C
Second: CC(C)=CCc1cc([C@@H]2CC(=O)c3c(O)cc(O)cc3O2)cc(CC=C(C)C)c1O [ABYSSINONE V]
The IC50 of the first is 1.5-fold lower: 26.3 µM for the first, 39.7 µM for the second.

`COc1c(CC=C(C)C)cc([C@@H]2CC(=O)c3ccc(O)cc3O2)cc1CC=C(C)C` and `CC(C)=CCc1cc([C@@H]2CC(=O)c3ccc(O)cc3O2)cc(CC=C(C)C)c1O` [ABYSSINONE IV] are within 1.5-fold of each other in IC50: 21.2 µM for the first, 16 µM for the second.

Going from `COc1c(CC=C(C)C)cc(/C=C/C(=O)c2ccc(O)cc2O)cc1CC=C(C)C` to `COc1c(/C=C/C(C)(C)O)cc([C@@H]2CC(=O)c3ccc(O)cc3O2)cc1CC=C(C)C`, the IC50 rises from 14.8 µM to > 60 µM. The first is the more potent here.

`O=C1C[C@@H](c2ccc(O)cc2)Oc2cc(O)ccc21` [LIQUIRTIGENIN] and `C[C@@H]1O[C@@H](O[C@H]2[C@H](Oc3cc(O)c4c(c3)O[C@H](c3ccc(O)cc3)CC4=O)O[C@H](CO)[C@@H](O)[C@@H]2O)[C@H](O)[C@H](O)[C@H]1O` [NARINGIN] cannot be ordered by IC50: > 60 µM for the first, > 60 µM for the second.

Compound `CC(C)=CCc1cc([C@@H]2CC(=O)c3c(O)cc(O)cc3O2)cc2c1OC(C)(C)C=C2` [SIGMOIDIN E] has an IC50 of 39.2 µM.
